Key:
[1] = test system: MT-4 cells; experiment: Cytotoxicity in mock-infected MT-4 cells, MTT assay; format: cell-based; details: 50% reduction of viability of mock-infected MT-4 cells
Experimental: (§1) II. In vitro anti-HIV Assay in MT-4 Cells […]
(§2) performed using the MTT assay as described below. Stock solutions (10 × final concentration) of test compounds were added in 25 µL volumes to two series of […]
(§3) infected cells at the beginning of each experiment. Serial 5-fold dilutions of test […]
(§4) Biomek 3000 robot (Beckman Instruments, Fullerton, CA). Untreated HIV- and mock-infected cell samples were included as controls. HIV stock (50 µL) at 100-300 CCID50 […]
(§5) or mock-infected wells of the microtiter tray. Mock-infected cells were used to evaluate […]
(§6) cytotoxicity. Exponentially growing MT-4 cells were centrifuged for 5 minutes at 220 g, and the supernatant was discarded. […]
(§7) cells/mL, and 50 µL volumes were transferred to the microtiter tray wells. Five days […]
(§8) spectrophotometrically using the MTT assay. The MTT assay is based on the reduction […]
(§9) M1000, Tecan), at two wavelengths (540 and 690 nm). All data were calculated using the median absorbance value of three wells.
(§10) (OD540) of the mock-infected control sample by 50%. The concentration achieving 50%

[2] = test system: HIV-1 (IIIB); experiment: microbe, parasite or virus in culture; format: cell-based; details: Human immunodeficiency virus 1, MT4, 50% protection against HIV-induced cytotoxicity, MT-4 cells, MTT
Experimental: (§11) II. In vitro anti-HIV Assay in MT-4 Cells
(§12) Evaluation of the antiviral activity of the compounds against HIV in MT-4 cells was performed using the MTT assay as described below. Stock solutions (10 × final concentration) of test compounds were added in 25 µL volumes to two series of triplicate wells to allow simultaneous evaluation of their effects on mock- and HIV-infected cells at the beginning of each experiment. Serial 5-fold dilutions of test compounds were made directly in flat-bottomed 96-well microtiter trays using a Biomek 3000 robot (Beckman Instruments, Fullerton, CA). Untreated HIV- and mock-infected cell samples were included as controls. HIV stock (50 µL) at 100-300 CCID50 (50 % cell culture infectious doses) or culture medium was added to either the infected or mock-infected wells of the microtiter tray. Mock-infected cells were used to evaluate the effects of the test compound on uninfected cells to assess the test compounds' cytotoxicity. Exponentially growing MT-4 cells were centrifuged for 5 minutes at 220 g, and the supernatant was discarded. […]
(§13) cells/mL, and 50 µL volumes were transferred to the microtiter tray wells. Five days after infection, the viability of mock-and HIV-infected cells was examined spectrophotometrically using the MTT assay. The MTT assay is based on the reduction of yellow colored 3-(4,5-dimethylthiazol-2-yl)-2,5-diphenyltetrazolium bromide (MTT) (Acros Organics) by mitochondrial dehydrogenase activity in metabolically active cells to a blue-purple formazan that can be measured spectrophotometrically. The absorbances were read in an eight-channel computer-controlled photometer (Infinite M1000, Tecan), at two wavelengths (540 and 690 nm). All data were calculated using the median absorbance value of three wells. […]
(§14) was defined as the concentration of the test compound that reduced the absorbance (OD540) of the mock-infected control sample by 50%. The concentration achieving 50% protection against the cytopathic effect of the virus in infected cells was defined as the […]

[3] = test system: HIV-2 (ROD); experiment: Anti-HIV-2 (ROD) activity in MT-4 cells, MTT assay; format: cell-based; details: Human immunodeficiency virus 2, MT4, 50% protection against HIV-induced cytotoxicity
Experimental: as §11, §12, §13, §14

[4] = in vitro; details: both, human, plasma
[5] = Cytotoxicity in mock-infected MT-4 cells, MTT assay; format: cell-based; details: human, 50% reduction of viability of mock-infected MT-4 cells
Experimental: as §1, §2, §3, §4, §5, §6, §7, §8, §9, §10

Structure (SMILES) | CC50 [1] [µM] | EC50 [2] [µM] | EC50 [3] [µM] | further results
COc1ccc(N(C)C(=O)[C@H](Cc2cc(F)cc(F)c2)NC(=O)CN2CCN(C(=O)Cc3c[nH]c4ccccc34)CC2=O)cc1 [F2-7d, (S)-2-(2-(4-(2-(1H-indol-3-yl)acetyl)-2-oxopiperazin-1-yl)acetamido)-3-(3,5-difluorophenyl)-N-(4-methoxyphenyl)-N-methylpropanamide] | 57.8 ± 21.8 | 29.4 ± 7.03 | 17.6 ± 9.14 | –
COc1ccc(N(C)C(=O)[C@H](Cc2ccccc2)NC(=O)CN2CCN(C(=O)Cc3c[nH]c4ccc(Br)cc34)CC2=O)cc1 [7c, (S)-2-(2-(4-(2-(5-bromo-1H-indol-3-yl)acetyl)-2-oxopiperazin-1-yl)acetamido)-N-(4-methoxyphenyl)-N-methyl-3-phenylpropanamide] | 16.4 ± 3.44 | > 16.4 | > 16.4 | –
Cc1[nH]c2ccccc2c1CC(=O)N[C@@H](Cc1ccccc1)C(=O)N(C)c1ccccc1 [PF74] | – | – | – | half-life at 2 μM [4]: > 289 min; remaining at 0 h, 2 μM [4]: 100%
COc1ccc(N(C)C(=O)[C@H](Cc2ccccc2)NC(=O)CN2CCN(C(=O)Cc3c[nH]c4ccc(OC)cc34)CC2=O)cc1 [7b, (S)-2-(2-(4-(2-(5-methoxy-1H-indol-3-yl)acetyl)-2-oxopiperazin-1-yl)acetamido)-N-(4-methoxyphenyl)-N-methyl-3-phenylpropanamide] | 104 ± 3.37 | 14.6 ± 0.39 | 16.9 ± 3.58 | –
COc1ccc(N(C)C(=O)[C@H](Cc2cc(F)cc(F)c2)NC(=O)CN2CCN(C(=O)Cc3c[nH]c4ccc(Br)cc34)CC2=O)cc1 [F2-7c, (S)-2-(2-(4-(2-(5-bromo-1H-indol-3-yl)acetyl)-2-oxopiperazin-1-yl)acetamido)-3-(3,5-difluorophenyl)-N-(4-methoxyphenyl)-N-methylpropanamide] | 3.15 ± 0.4 | > 3.15 | > 3.15 | –
COc1ccc(N(C)C(=O)[C@H](Cc2cc(F)cc(F)c2)NC(=O)CN2CCN(C(=O)c3ccc(NC(=O)C4CC4)cc3)CC2=O)cc1 [F2-7i, (S)-N-(4-(4-(2-((3-(3,5-difluorophenyl)-1-((4-methoxyphenyl)(methyl)amino)-1-oxopropan-2-yl)amino)-2-oxoethyl)-3-oxopiperazine-1-carbonyl)phenyl)cyclopropanecarboxamide] | 88.6 ± 11.3 | 14.4 ± 1.31 | 15.1 ± 0.68 | –
COc1ccc(N(C)C(=O)[C@H](Cc2cc(F)cc(F)c2)NC(=O)CN2CCN(C(=O)Cc3c[nH]c4ccc(O)cc34)CC2=O)cc1 [F2-7e, (S)-3-(3,5-difluorophenyl)-2-(2-(4-(2-(5-hydroxy-1H-indol-3-yl)acetyl)-2-oxopiperazin-1-yl)acetamido)-N-(4-methoxyphenyl)-N-methylpropanamide] | 132 ± 33 | > 132 | ≥ 49.6 | –
COc1ccc(N(C)C(=O)[C@H](Cc2ccccc2)NC(=O)CN2CCN(C(=O)Cc3c(C)[nH]c4ccccc34)CC2=O)cc1 [7a, (S)-N-(4-methoxyphenyl)-N-methyl-2-(2-(4-(2-(2-methyl-1H-indol-3-yl)acetyl)-2-oxopiperazin-1-yl)acetamido)-3-phenylpropanamide] | 108 ± 3.26 | 14.3 ± 0.76 | 7.74 ± 0.79 | –
COc1ccc(N(C)C(=O)[C@H](Cc2ccccc2)NC(=O)CN2CCN(C(=O)Cc3c[nH]c4ccc(O)cc34)CC2=O)cc1 [7e, (S)-2-(2-(4-(2-(5-hydroxy-1H-indol-3-yl)acetyl)-2-oxopiperazin-1-yl)acetamido)-N-(4-methoxyphenyl)-N-methyl-3-phenylpropanamide] | – | 198 ± 9.74 | 186 ± 4.42 | CC50 at 5 days [5]: > 209 µM
COc1ccc(N(C)C(=O)[C@H](Cc2ccccc2)NC(=O)CN2CCN(C(=O)c3ccc(NS(C)(=O)=O)cc3)CC2=O)cc1 [7h, (S)-N-(4-methoxyphenyl)-N-methyl-2-(2-(4-(4-(methylsulfonamido)benzoyl)-2-oxopiperazin-1-yl)acetamido)-3-phenylpropanamide] | – | 192 ± 3.17 | > 201 | CC50 at 5 days [5]: > 201 µM
COc1ccc(N(C)C(=O)[C@H](Cc2ccccc2)NC(=O)CN2CCN(C(=O)Cc3c[nH]c4ccc(F)cc34)CC2=O)cc1 [7f, (S)-2-(2-(4-(2-(5-fluoro-1H-indol-3-yl)acetyl)-2-oxopiperazin-1-yl)acetamido)-N-(4-methoxyphenyl)-N-methyl-3-phenylpropanamide] | 90.1 ± 15.7 | 21.8 ± 4.81 | 4.52 ± 0.87 | –
COc1ccc(N(C)C(=O)[C@H](Cc2ccccc2)NC(=O)CN2CCN(C(=O)c3ccc(NC(=O)C4CC4)cc3)CC2=O)cc1 [7i, (S)-N-(4-(4-(2-((1-((4-methoxyphenyl)(methyl)amino)-1-oxo-3-phenylpropan-2-yl)amino)-2-oxoethyl)-3-oxopiperazine-1-carbonyl)phenyl)cyclopropanecarboxamide] | 168 ± 19.8 | > 168 | 15 ± 2.27 | –
CC(C)[N+](C)(CCOC(=O)C1c2ccccc2Oc2ccccc21)C(C)C [Propantheline bromide] | – | – | – | half-life at 2 μM [4]: 11.2 min; remaining at 0 h, 2 μM [4]: 100%; remaining at 10 min, 2 μM [4]: 56.5%; remaining at 0.5 h, 2 μM [4]: 19.4%; remaining at 1 h, 2 μM [4]: 1.9%; remaining at 2 h, 2 μM [4]: 0.1%
COc1ccc(N(C)C(=O)[C@H](Cc2cc(F)cc(F)c2)NC(=O)CN2CCN(C(=O)c3ccc(NC(C)=O)cc3)CC2=O)cc1 [F2-7g, (S)-2-(2-(4-(4-acetamidobenzoyl)-2-oxopiperazin-1-yl)acetamido)-3-(3,5-difluorophenyl)-N-(4-methoxyphenyl)-N-methylpropanamide] | 196 ± 6.8 | 177 ± 16.6 | 192 ± 4.57 | –
COc1ccc(N(C)C(=O)[C@H](Cc2ccccc2)NC(=O)CN2CCN(C(=O)Cc3c[nH]c4ccccc34)CC2=O)cc1 [7d, (S)-2-(2-(4-(2-(1H-indol-3-yl)acetyl)-2-oxopiperazin-1-yl)acetamido)-N-(4-methoxyphenyl)-N-methyl-3-phenylpropanamide] | 112 ± 3.22 | 15 ± 0.24 | 4.89 ± 1.39 | –
COc1ccc(N(C)C(=O)[C@H](Cc2cc(F)cc(F)c2)NC(=O)CN2CCN(C(=O)Cc3c(C)[nH]c4ccccc34)CC2=O)cc1 [F2-7a, (S)-3-(3,5-difluorophenyl)-N-(4-methoxyphenyl)-N-methyl-2-(2-(4-(2-(2-methyl-1H-indol-3-yl)acetyl)-2-oxopiperazin-1-yl)acetamido)propenamide] | 76.9 ± 20 | 20.8 ± 5.09 | 19.7 ± 6.59 | –
COc1ccc(N(C)C(=O)[C@H](Cc2cc(F)cc(F)c2)NC(=O)CN2CCN(C(=O)c3ccc(NC(=O)C(F)(F)F)cc3)CC2=O)cc1 [F2-7j, (S)-3-(3,5-difluorophenyl)-N-(4-methoxyphenyl)-N-methyl-2-(2-(2-oxo-4-(4-(2,2,2-trifluoroacetamido)benzoyl)piperazin-1-yl)acetamido)propenamide] | 150 ± 25.5 | 13.7 ± 0.7 | 16.6 ± 6.13 | –
COc1ccc(N(C)C(=O)[C@H](Cc2cc(F)cc(F)c2)NC(=O)CN2CCN(C(=O)Cc3c[nH]c4ccc(OC)cc34)CC2=O)cc1 [F2-7b, (S)-3-(3,5-difluorophenyl)-2-(2-(4-(2-(5-methoxy-1H-indol-3-yl)acetyl)-2-oxopiperazin-1-yl)acetamido)-N-(4-methoxyphenyl)-N-methylpropanamide] | 15.9 ± 3.83 | > 15.9 | > 15.9 | –

Source: article PMC9739877, “Discovery and Mechanistic Investigation of Piperazinone Phenylalanine Derivatives with Terminal Indole or Benzene Ring as Novel HIV-1 Capsid Modulators” (Molecules, 2022)
